Molecular target: URAT-1 transporter (Homo sapiens (Human), UniProt Q96S37)
Assay: URAT-1 inhibitor activity: [14C]-uric acid uptake in CHO-URAT1(L)GFP#8 (CHO#8) cells, scintillation proximity
Format: cell-based
Conditions: inhibition of [14C]-uric acid (30 nM) uptake into CHO#8 cells; compound 0 to 10 μM; 4 parameter logistic fit
Excerpt: The nucleotide sequence for the long isoform of URAT1 (NM_144585) was C-terminally fused to that of enhanced green fluorescent protein (eGFP) (hereinafter referred to as URAT1(L)GFP). The combined sequence was codon-optimised and custom synthesized. The synthesized sequence was generated in pDONR221 Gateway entry vector (Invitrogen Life Technologies) prior to cloning in pLenti6.3/V5 Gateway destination vector (Invitrogen Life Technologies).
Lentiviral particles were generated according to ViraPower HiPerform expression system procedure (Invitrogen Life Technologies) and used to transduce CHO cells. […] The clonal pools were sorted using fluorescence-activated cell sorting (FACS) on the basis of GFP expression with the gating set at the top 50% of expression into single cells which were subsequently expanded to generate clonal lines. […] This cell line was used for all screening activities and is referred to as CHO-URAT1(L)GFP#8 or CHO#8.
The potency of the compounds of formula (I) as inhibitors of the URAT-1 transporter was determined as follows.
CHO#8 cells were cultured in cell line maintenance flasks in medium consisting of Dulbecco's modified Eagle medium (DMEM) with high glucose and sodium pyruvate (4.5 g of glucose per liter, Invitrogen Life Technologies), supplemented with heat-inactivated foetal bovine serum (FBC, 10% v/v), 1×NEAA (non-essential amino acids) and blasticidin (10 μg/ml). Cultures were grown in 175 cm^2 tissue culture flasks in a humidified incubator at approximately 37° C. in approximately 95% air/5% CO2. Near confluent CHO#8 cell cultures were harvested by trypsinisation, re-suspended in culture medium and the process was repeated once or twice weekly to provide sufficient cells for use.
Assay ready flasks were generated by the same method, except the cells were not cultured in blasticidin.
Assay ready frozen cells were generated by freezing 40,000,000 cells in 1 ml of FBS (without blasticidin) containing 10% DMSO per vial. One vial was sufficient for 5 assay plates. Each vial was thawed rapidly to 37° C., washed and re-suspended in pre-warmed culture medium for seeding onto assay plates.
CHO#8 cells were seeded onto Cytostar™ 96-well plates at a density of […]. The cells were cultured for 1 day at approximately 37° C. in a humidified incubator containing approximately 5% CO2 in air. After approximately 24 hours culture, cells were used for uptake experiments.
On the day of assay, culture medium was removed from the wells and the cells were washed once with 50 μL of chloride-containing buffer (136.7 mM NaCl, 5.36 mM KCl, 0.952 mM CaCl2, 0.441 mM KH2PO4, 0.812 mM MgSO4, 5.6 mM D-glucose, 0.383 mM Na2HPO4.2H2O, 10 mM HEPES, pH 7.4 with NaOH). The cells were pre-incubated with another 50 μL of chloride-containing buffer for one hour at approximately 37° C. in a humidified incubator containing approximately 5% CO2 in air.
Assay compound plates were prepared by diluting the compounds of formula (I) with chloride-free buffer (125 mM Na-gluconate, 4.8 mM K-gluconate, 1.3 mM Ca-gluconate, 1.2 mM KH2PO4, 1.2 mM MgSO4, 5.6 mM D-glucose, 25 mM HEPES, pH 7.4 with NaOH) in 100% DMSO to a final concentration of 1% DMSO. [^14C]-Uric Uric acid working stock was made by addition of radiolabeled compound to a final concentration of 120 nM in chloride-free buffer. In all wells, the final assay concentration of solvent (DMSO) was 0.25%; the final assay concentration of [^14C]-uric acid was 30 nM in chloride-free buffer and the final compound of formula (I) concentrations ranged from 0 to 10 μM.
After pre-incubation, cells were washed with 50 μL of chloride-free buffer and another 50 μL of chloride-free buffer was added.

Compound	IC50 [nM]
4-{4-chloro-2-[D3-methyloxy]phenoxy}-3-cyano-N-(pyridazin-3-yl)benzenesulfonamide [Example 82]	409
N#Cc1ccc(Oc2ccc(S(=O)(=O)Nc3ccc(F)cn3)cc2C#N)cc1Cl [Example 1, 4-(3-chloro-4-cyanophenoxy)-3-cyano-N-(5-fluoropyridin-2-yl)benzenesulfonamide]	13
N#Cc1cc(S(=O)(=O)Nc2ccc(F)cn2)ccc1Oc1cccc(Cl)c1Cl [Example 3, 3-cyano-4-(2,3-dichlorophenoxy)-N-(5-fluoropyridin-2-yl)benzenesulfonamide]	141
Cc1cc(Cl)ccc1Oc1ccc(S(=O)(=O)Nc2ccc(F)cn2)cc1C#N [Example 5, 4-(4-chloro-2-methylphenoxy)-3-cyano-N-(5-fluoropyridin-2-yl)benzenesulfonamide]	148
COc1cc(F)cc(Oc2ccc(S(=O)(=O)Nc3ccc(F)cn3)cc2C#N)c1 [Example 8, 3-cyano-4-(3-fluoro-5-methoxyphenoxy)-N-(5-fluoropyridin-2-yl)benzenesulfonamide]	119
N#Cc1cc(S(=O)(=O)Nc2ccc(F)cn2)ccc1Oc1ccccc1Cl [Example 9, 4-(2-chlorophenoxy)-3-cyano-N-(5-fluoropyridin-2-yl)benzenesulfonamide]	208
Cc1cc(Cl)cc(Oc2ccc(S(=O)(=O)Nc3ccc(F)cn3)cc2C#N)c1 [Example 15, 4-(3-chloro-5-methylphenoxy)-3-cyano-N-(5-fluoropyridin-2-yl)benzenesulfonamide]	135
Cc1ccc(F)cc1Oc1ccc(S(=O)(=O)Nc2ccc(F)cn2)cc1C#N [Example 21, 3-cyano-4-(5-fluoro-2-methylphenoxy)-N-(5-fluoropyridin-2-yl)benzenesulfonamide]	84
N#Cc1cc(S(=O)(=O)Nc2ccc(F)cn2)ccc1Oc1cccc(Cl)c1F [Example 24, 4-(3-chloro-2-fluorophenoxy)-3-cyano-N-(5-fluoropyridin-2-yl)benzenesulfonamide]	135
Cc1cc(Cl)c(Oc2ccc(S(=O)(=O)Nc3ccc(F)cn3)cc2C#N)cc1C#N [Example 26, 4-(2-chloro-5-cyano-4-methylphenoxy)-3-cyano-N-(5-fluoropyridin-2-yl)benzenesulfonamide]	57
N#Cc1cc(S(=O)(=O)Nc2ccc(F)cn2)ccc1Oc1cc(F)cc(Cl)c1 [Example 28, 4-(3-chloro-5-fluorophenoxy)-3-cyano-N-(5-fluoropyridin-2-yl)benzenesulfonamide]	92
N#Cc1ccc(Oc2ccc(S(=O)(=O)Nc3ccc(F)cn3)cc2C#N)c(Cl)c1 [Example 30, 4-(2-chloro-4-cyanophenoxy)-3-cyano-N-(5-fluoropyridin-2-yl)benzenesulfonamide]	183
N#Cc1cc(S(=O)(=O)Nc2ccc(F)cn2)ccc1Oc1ccc(F)cc1Cl [Example 31, 4-(2-chloro-4-fluorophenoxy)-3-cyano-N-(5-fluoropyridin-2-yl)benzenesulfonamide]	78
N#Cc1cc(S(=O)(=O)Nc2ccc(F)cn2)ccc1Oc1cc(F)cc(F)c1Cl [Example 32, 4-(2-chloro-3,5-difluorophenoxy)-3-cyano-N-(5-fluoropyridin-2-yl)benzenesulfonamide]	212

Continued, values first:

IC50 [nM]	Compound
> 10000	CCc1cccc(Oc2ccc(S(=O)(=O)Nc3ccc(F)cn3)cc2C#N)c1 [Example 2, 3-cyano-4-(3-ethylphenoxy)-N-(5-fluoropyridin-2-yl)benzenesulfonamide]
> 10000	N#Cc1cc(S(=O)(=O)Nc2ccc(F)cn2)ccc1Oc1cc(C(F)(F)F)ccc1F [Example 4, 3-cyano-N-(5-fluoropyridin-2-yl)-4-[2-fluoro-5-(trifluoromethyl)phenoxy]benzenesulfonamide]
267	N#Cc1cc(S(=O)(=O)Nc2ccc(F)cn2)ccc1Oc1ccc(C#N)c(C(F)(F)F)c1 [Example 6, 3-cyano-4-[4-cyano-3-(trifluoromethyl)phenoxy]-N-(5-fluoropyridin-2-yl)benzenesulfonamide]
64	N#Cc1cc(S(=O)(=O)Nc2ccc(F)cn2)ccc1Oc1ccc(F)cc1F [Example 7, 3-cyano-4-(2,4-difluorophenoxy)-N-(5-fluoropyridin-2-yl)benzenesulfonamide]
74	N#Cc1ccc(Oc2ccc(S(=O)(=O)Nc3ccc(F)cn3)cc2C#N)cc1 [Example 10, 3-cyano-4-(4-cyanophenoxy)-N-(5-fluoropyridin-2-yl)benzenesulfonamide]
125	N#Cc1cc(S(=O)(=O)Nc2ccc(F)cn2)ccc1Oc1cc(F)cc(F)c1 [Example 11, 3-cyano-4-(3,5-difluorophenoxy)-N-(5-fluoropyridin-2-yl)benzenesulfonamide]
206	N#Cc1cccc(Oc2ccc(S(=O)(=O)Nc3ccc(F)cn3)cc2C#N)c1 [Example 14, 3-cyano-4-(3-cyanophenoxy)-N-(5-fluoropyridin-2-yl)benzenesulfonamide]
218	N#Cc1cc(S(=O)(=O)Nc2ccc(F)cn2)ccc1Oc1cccc(F)c1F [Example 16, 3-cyano-4-(2,3-difluorophenoxy)-N-(5-fluoropyridin-2-yl)benzenesulfonamide]
> 10000	N#Cc1cc(S(=O)(=O)Nc2ccc(F)cn2)ccc1Oc1cccc(OC(F)(F)F)c1 [Example 18, 3-cyano-N-(5-fluoropyridin-2-yl)-4-[3-(trifluoromethoxy)phenoxy]benzenesulfonamide]
57	N#Cc1cc(Oc2ccc(S(=O)(=O)Nc3ccc(F)cn3)cc2C#N)ccc1F [Example 19, 3-cyano-4-(3-cyano-4-fluorophenoxy)-N-(5-fluoropyridin-2-yl)benzenesulfonamide]
88	N#Cc1cc(S(=O)(=O)Nc2ccc(F)cn2)ccc1Oc1ccc(Cl)cc1 [Example 20, 4-(4-chlorophenoxy)-3-cyano-N-(5-fluoropyridin-2-yl)benzenesulfonamide]
209	Cc1ccc(Oc2ccc(S(=O)(=O)Nc3ccc(F)cn3)cc2C#N)cc1Cl [Example 22, 4-(3-chloro-4-methylphenoxy)-3-cyano-N-(5-fluoropyridin-2-yl)benzenesulfonamide]
> 10000	N#Cc1cc(S(=O)(=O)Nc2ccc(F)cn2)ccc1Oc1cccc(C(F)(F)F)c1 [Example 23, 3-cyano-N-(5-fluoropyridin-2-yl)-4-[3-(trifluoromethyl)phenoxy]benzenesulfonamide]
86	N#Cc1cc(S(=O)(=O)Nc2ccc(F)cn2)ccc1Oc1cccc(Cl)c1 [Example 25, 4-(3-chlorophenoxy)-3-cyano-N-(5-fluoropyridin-2-yl)benzenesulfonamide]
274	N#Cc1cc(S(=O)(=O)Nc2ccc(F)cn2)ccc1Oc1ccccc1OC(F)(F)F [Example 27, 3-cyano-N-(5-fluoropyridin-2-yl)-4-[2-(trifluoromethoxy)phenoxy]benzenesulfonamide]
> 10000	N#Cc1cc(S(=O)(=O)Nc2ccc(F)cn2)ccc1Oc1cccc(C(F)(F)F)c1F [Example 29, 3-cyano-N-(5-fluoropyridin-2-yl)-4-[2-fluoro-3-(trifluoromethyl)phenoxy]benzenesulfonamide]
80	Cc1cc(Oc2ccc(S(=O)(=O)Nc3ccc(F)cn3)cc2C#N)ccc1Cl [Example 34, 4-(4-chloro-3-methylphenoxy)-3-cyano-N-(5-fluoropyridin-2-yl)benzenesulfonamide]
> 10000	N#Cc1cc(S(=O)(=O)Nc2ccc(F)cn2)ccc1Oc1ccc(OC(F)(F)F)cc1 [Example 35, 3-cyano-N-(5-fluoropyridin-2-yl)-4-[4-(trifluoromethoxy)phenoxy]benzenesulfonamide]
